From patent US10758534B2 (Vertex Pharmaceuticals Incorporated, priority 2014, dated 2020) come the findings set out here.

Structures are written as SMILES.

This experiment has as its target T1, F508del (Homo sapiens, UniProt P13569, DEL508-508).
T1 construct: expressed in transfected cells
In words: Protocol 1: membrane potential optical assay (FLIPR III, voltage sensing dye), identification of potentiator compounds. The following applies: Table 3, compounds of Table 1. The experiment is classed as cell-based. The procedure, abridged:
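NIH 3T3 fibroblasts stably expressing F508del were cultured at 27° C for 24 hrs for temperature correction, then treated with compounds or DMSO and loaded with a voltage-sensing redistribution dye. Forskolin added with a Cl⁻ gradient activated the channel; membrane-potential fluorescence on FLIPR III reported increased gating.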

T1 sequence (P13569 with tags, fused parts or gaps DEL508-508): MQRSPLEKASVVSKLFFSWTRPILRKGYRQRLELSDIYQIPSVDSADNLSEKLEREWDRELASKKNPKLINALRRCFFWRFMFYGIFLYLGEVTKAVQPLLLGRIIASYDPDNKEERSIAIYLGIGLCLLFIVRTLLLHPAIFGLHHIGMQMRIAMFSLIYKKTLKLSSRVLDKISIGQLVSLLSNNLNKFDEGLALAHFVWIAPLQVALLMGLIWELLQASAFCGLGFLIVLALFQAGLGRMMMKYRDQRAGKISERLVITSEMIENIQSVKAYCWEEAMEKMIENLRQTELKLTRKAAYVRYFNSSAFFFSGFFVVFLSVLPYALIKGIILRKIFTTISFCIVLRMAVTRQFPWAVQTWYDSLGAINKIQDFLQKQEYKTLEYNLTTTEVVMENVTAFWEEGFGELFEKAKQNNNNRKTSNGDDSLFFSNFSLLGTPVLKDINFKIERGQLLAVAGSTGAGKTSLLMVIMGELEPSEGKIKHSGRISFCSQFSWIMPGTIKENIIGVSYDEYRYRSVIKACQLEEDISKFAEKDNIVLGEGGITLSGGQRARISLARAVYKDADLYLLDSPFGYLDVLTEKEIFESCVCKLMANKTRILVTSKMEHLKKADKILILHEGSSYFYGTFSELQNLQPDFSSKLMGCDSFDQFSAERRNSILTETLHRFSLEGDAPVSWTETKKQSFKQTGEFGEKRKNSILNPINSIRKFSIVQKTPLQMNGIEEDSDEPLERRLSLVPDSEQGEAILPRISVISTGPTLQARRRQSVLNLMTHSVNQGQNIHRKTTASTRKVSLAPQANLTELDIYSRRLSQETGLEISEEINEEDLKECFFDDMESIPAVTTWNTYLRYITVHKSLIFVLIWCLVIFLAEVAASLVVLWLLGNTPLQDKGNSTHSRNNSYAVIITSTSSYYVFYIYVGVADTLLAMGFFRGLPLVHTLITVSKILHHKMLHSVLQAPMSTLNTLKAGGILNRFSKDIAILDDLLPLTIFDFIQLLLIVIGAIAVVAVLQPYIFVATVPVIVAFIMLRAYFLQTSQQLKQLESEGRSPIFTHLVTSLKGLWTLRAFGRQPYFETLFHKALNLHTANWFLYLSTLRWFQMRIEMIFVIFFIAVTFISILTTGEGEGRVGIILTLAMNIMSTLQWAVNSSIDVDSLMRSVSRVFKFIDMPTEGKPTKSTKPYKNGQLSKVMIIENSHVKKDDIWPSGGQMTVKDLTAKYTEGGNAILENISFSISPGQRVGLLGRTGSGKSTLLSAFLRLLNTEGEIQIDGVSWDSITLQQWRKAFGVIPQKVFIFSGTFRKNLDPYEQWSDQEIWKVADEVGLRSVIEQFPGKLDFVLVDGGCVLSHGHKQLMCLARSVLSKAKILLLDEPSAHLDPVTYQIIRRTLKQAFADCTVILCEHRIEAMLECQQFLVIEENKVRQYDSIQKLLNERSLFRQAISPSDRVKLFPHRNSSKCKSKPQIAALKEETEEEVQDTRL

For the compound `COc1c(C(C)(C)C)nn(Cc2c(C)cc(C)cc2C)c1C(=O)NS(=O)(=O)c1cccc(N)c1` [Compound 1305, N-(3-aminophenyl)sulfonyl-5-tert-butyl-4-methoxy-2-[(2,4,6-trimethylphenyl)methyl]pyrazole-3-carboxamide], the EC30 entry is “+++ (“+++” means <3 uM)”.
Consider `COc1ncc(-c2ccc(C(=O)NS(=O)(=O)c3cc[nH]n3)c(Oc3ccc(C)cc3C)n2)cc1C` [Compound 892, 2-(2,4-dimethylphenoxy)-6-(6-methoxy-5-methyl-3-pyridyl)-N-(1H-pyrazol-3-ylsulfonyl)pyridine-3-carboxamide], for which the EC30 entry is “++ (“++” means between 3 uM and 10 uM)”.
The entry for `CC1CN(c2ncccc2C(=O)NS(=O)(=O)c2cccc(NCc3nccs3)n2)C(C)(C)C1` (stereo not drawn) [Compound 1865, N—[[6-(thiazol-2-ylmethylamino)-2-pyridyl]sulfonyl]-2-(2,2,4-trimethylpyrrolidin-1-yl)pyridine-3-carboxamide] is “++ (“++” means between 3 uM and 10 uM)”; for `Cc1ccc(-c2ccc(C(=O)NS(=O)(=O)c3cc[nH]n3)c(NCC3(C)CCOCC3)n2)cc1` [Compound 879, 2-[(4-methyltetrahydropyran-4-yl)methylamino]-6-(p-tolyl)-N-(1H-pyrazol-3-ylsulfonyl)pyridine-3-carboxamide] it is “+ (“+” means greater than 10 uM)”; for `CCOc1cc(F)cc(-c2ccc(C(=O)NS(=O)(=O)c3ccc[nH]c3=O)c(N3[C@H](C)CC[C@@H]3C)n2)c1` [Compound 1096, 2-[(2R,5S)-2,5-dimethylpyrrolidin-1-yl]-6-(3-ethoxy-5-fluoro-phenyl)-N-[(2-oxo-1H-pyridin-3-yl)sulfonyl]pyridine-3-carboxamide] it is “++ (“++” means between 3 uM and 10 uM)”.
The entry for `CC(C)COc1cc(F)cc(-c2ccc(C(=O)NS(=O)(=O)c3ccn[nH]3)c(N3CCCC3Cc3ccccc3)n2)c1` (stereo not drawn) [Compound 1257, 2-(2-benzylpyrrolidin-1-yl)-6-(3-fluoro-5-isobutoxy-phenyl)-N-(1H-pyrazol-5-ylsulfonyl)pyridine-3-carboxamide] is “++ (“++” means between 3 uM and 10 uM)”.
Consider `CC(C)Oc1ccc(-c2ccc(C(=O)NS(=O)(=O)c3cccc(N)n3)c(N3CC[C@@H](C)C3)n2)cn1` [Compound 1322, N-[(6-amino-2-pyridyl)sulfonyl]-6-(6-isopropoxy-3-pyridyl)-2-[(3R)-3-methylpyrrolidin-1-yl]pyridine-3-carboxamide], for which the EC30 result was “++ (“++” means between 3 uM and 10 uM)”.
`CC1CN(c2ncccc2C(=O)NS(=O)(=O)c2cccc(OC3CCCCC3)n2)C(C)(C)C1` (stereo not drawn) [Compound 1908, N—[[6-(cyclohexoxy)-2-pyridyl]sulfonyl]-2-(2,2,4-trimethylpyrrolidin-1-yl)pyridine-3-carboxamide]: the EC30 entry is given as “+++ (“+++” means <3 uM)”.
To `CCOc1cccc2c1CN(Cc1c(C)cc(C)cc1C)[C@]2(C)C(=O)NS(=O)(=O)c1ccc[nH]c1=O` [Compound 1541, (1S)-4-ethoxy-1-methyl-N-[(2-oxo-1H-pyridin-3-yl)sulfonyl]-2-[(2,4,6-trimethylphenyl)methyl]isoindoline-1-carboxamide] belongs “+++ (“+++” means <3 uM)”; to `Cc1cc(C)c(Oc2nc(-c3ccccc3)ccc2C(=O)NS(=O)(=O)c2cccc(N(C)C)n2)c(C)c1` [Compound 869, N-[[6-(dimethylamino)-2-pyridyl]sulfonyl]-6-phenyl-2-(2,4,6-trimethylphenoxy)pyridine-3-carboxamide], “+++ (“+++” means <3 uM)”.
On to `COc1ccc(-c2ccc(C(=O)NS(=O)(=O)c3cc[nH]n3)c(Oc3c(C)cc(C)cc3C)n2)cc1` [Compound 1033, 6-(4-methoxyphenyl)-N-(1H-pyrazol-3-ylsulfonyl)-2-(2,4,6-trimethylphenoxy)pyridine-3-carboxamide], for which the EC30 result is “+++ (“+++” means <3 uM)”.
Consider `CCOCCc1ccc(C(=O)NS(=O)(=O)c2cccc(N)n2)c(Oc2c(C)cc(C)cc2C)n1` [Compound 929, N-[(6-amino-2-pyridyl)sulfonyl]-6-(2-ethoxyethyl)-2-(2,4,6-trimethylphenoxy)pyridine-3-carboxamide], for which the EC30 result is “++ (“++” means between 3 uM and 10 uM)”.
To `CC(C)Cc1ccn(-c2ccc(C(=O)NS(=O)(=O)c3cccc(N)n3)c(N3C[C@@H](C)CC3(C)C)n2)n1` [Compound 1411, N-[(6-amino-2-pyridyl)sulfonyl]-6-(3-isobutylpyrazol-1-yl)-2-[(4S)-2,2,4-trimethylpyrrolidin-1-yl]pyridine-3-carboxamide] belongs “+++ (“+++” means <3 uM)”; to `C[C@@H]1CN(c2nc(-c3cc(F)c(F)cc3F)ccc2C(=O)NS(=O)(=O)c2ccc[nH]c2=O)C(C)(C)C1` [Compound 1981, N-[(2-oxo-1H-pyridin-3-yl)sulfonyl]-6-(2,4,5-trifluorophenyl)-2-[(4S)-2,2,4-trimethylpyrrolidin-1-yl]pyridine-3-carboxamide], “+++ (“+++” means <3 uM)”; to `Cc1ccc(Oc2nc3c(cc2C(=O)NS(=O)(=O)c2nccnc2N)CCCC3(C)C)c(C)c1` [Compound 1239, N-(3-aminopyrazin-2-yl)sulfonyl-2-(2,4-dimethylphenoxy)-8,8-dimethyl-6,7-dihydro-5H-quinoline-3-carboxamide], “+++ (“+++” means <3 uM)”.
Turning to `CCCOc1cccc(-c2ccc(C(=O)NS(=O)(=O)c3ccc[nH]c3=O)c(Oc3c(C)cc(C)cc3C)n2)c1` [Compound 1143, N-[(2-oxo-1H-pyridin-3-yl)sulfonyl]-6-(3-propoxyphenyl)-2-(2,4,6-trimethylphenoxy)pyridine-3-carboxamide], the EC30 entry was “++ (“++” means between 3 uM and 10 uM)”.
As to `CC(C)C(C)c1ccc(C(=O)NS(=O)(=O)c2cccc(N)n2)c(N2C[C@@H](C)CC2(C)C)n1` (stereo partly drawn) [Compound 1489, N-[(6-amino-2-pyridyl)sulfonyl]-6-(1,2-dimethylpropyl)-2-[(4S)-2,2,4-trimethylpyrrolidin-1-yl]pyridine-3-carboxamide], the EC30 result is reported as “+++ (“+++” means <3 uM)”.
With `C[C@@H]1CN(c2nc(C3CCCCO3)ccc2C(=O)NS(=O)(=O)c2ccc[nH]c2=O)C(C)(C)C1` (stereo partly drawn) [Compound 1503, N-[(2-oxo-1H-pyridin-3-yl)sulfonyl]-6-tetrahydropyran-2-yl-2-[(4S)-2,2,4-trimethylpyrrolidin-1-yl]pyridine-3-carboxamide], the EC30 result was “++ (“++” means between 3 uM and 10 uM)”.
For `Cc1cc(C)c(Oc2nc3c(cc2C(=O)NS(=O)(=O)c2ccc[nH]c2=O)CCCC3(C)C)c(C)c1` [Compound 899, 8,8-dimethyl-N-[(2-oxo-1H-pyridin-3-yl)sulfonyl]-2-(2,4,6-trimethylphenoxy)-6,7-dihydro-5H-quinoline-3-carboxamide], the EC30 result is recorded as “+++ (“+++” means <3 uM)”.
To `Cc1cc(OCC(C)C)ncc1-c1ccc(C(=O)NS(=O)(=O)c2cccc(N)n2)c(N2CC(C)CC2(C)C)n1` (stereo not drawn) [Compound 851, N-[(6-amino-2-pyridyl)sulfonyl]-6-(6-isobutoxy-4-methyl-3-pyridyl)-2-(2,2,4-trimethylpyrrolidin-1-yl)pyridine-3-carboxamide] belongs “+++ (“+++” means <3 uM)”; to `CC1CN(c2ncccc2C(=O)NS(=O)(=O)c2cccc(N3CCC(c4ccccc4)CC3)n2)C(C)(C)C1` (stereo not drawn) [Compound 1987, N—[[6-(4-phenyl-1-piperidyl)-2-pyridyl]sulfonyl]-2-(2,2,4-trimethylpyrrolidin-1-yl)pyridine-3-carboxamide], “+++ (“+++” means <3 uM)”; to `CC(=O)NC1CCCN(S(=O)(=O)NC(=O)c2ccc(-c3cc(F)cc(OCC(C)C)c3)nc2N2CC(C)CC2(C)C)C1` (stereo not drawn) [Compound 1586, N-[(3-acetamido-1-piperidyl)sulfonyl]-6-(3-fluoro-5-isobutoxy-phenyl)-2-(2,2,4-trimethylpyrrolidin-1-yl)pyridine-3-carboxamide], “+++ (“+++” means <3 uM)”.
`CC(C)COc1cc(F)cc(-c2ccc(C(=O)NS(=O)(=O)c3ccn[nH]3)c(N3C[C@H](C)C[C@@H](C)C3)n2)c1` [Compound 942, 2-[(3R,5R)-3,5-dimethyl-1-piperidyl]-6-(3-fluoro-5-isobutoxy-phenyl)-N-(1H-pyrazol-5-ylsulfonyl)pyridine-3-carboxamide]: the EC30 result is “+++ (“+++” means <3 uM)”.
Consider `Cc1cc(OC(C)C)nc(-c2ccc(C(=O)NS(=O)(=O)c3cccc(N)n3)c(N3C[C@@H](C)CC3(C)C)n2)c1` [Compound 1637, N-[(6-amino-2-pyridyl)sulfonyl]-6-(6-isopropoxy-4-methyl-2-pyridyl)-2-[(4S)-2,2,4-trimethylpyrrolidin-1-yl]pyridine-3-carboxamide], for which the EC30 entry is “+++ (“+++” means <3 uM)”.
To `Cc1ccc(-c2ccc(C(=O)NS(=O)(=O)c3cccc(N)n3)c(N3C[C@@H](C)CC3(C)C)n2)c(F)c1` [Compound 1910, N-[(6-amino-2-pyridyl)sulfonyl]-6-(2-fluoro-4-methyl-phenyl)-2-[(4S)-2,2,4-trimethylpyrrolidin-1-yl]pyridine-3-carboxamide] belongs “+++ (“+++” means <3 uM)”; to `CC(C)COc1cc(F)cc(-c2ccc(C(=O)NS(=O)(=O)c3ccn[nH]3)c(N3CCCC3(C)C)n2)c1` [Compound 1302, 2-(2,2-dimethylpyrrolidin-1-yl)-6-(3-fluoro-5-isobutoxy-phenyl)-N-(1H-pyrazol-5-ylsulfonyl)pyridine-3-carboxamide], “++ (“++” means between 3 uM and 10 uM)”; to `CC(C)COc1cc(F)cc(-c2ccc(C(=O)NS(=O)(=O)N3CC[C@@H](N)C3)c(N3C[C@@H](C)CC3(C)C)n2)c1` [Compound 1360, N-[(3R)-3-aminopyrrolidin-1-yl]sulfonyl-6-(3-fluoro-5-isobutoxy-phenyl)-2-[(4S)-2,2,4-trimethylpyrrolidin-1-yl]pyridine-3-carboxamide], “+++ (“+++” means <3 uM)”.
